In ChEMBL document CHEMBL1201862, “PubChem BioAssay data set” (2004):
The source made the active and inactive calls.

What was measured:
[1] = Counterscreen for activators of the function of SWI/SNF related, matrix associated, actin dependent regulator of chromatin, subfamily a, member 2 (SMARCA2, BRM): Luminescence-based cell-based high throughput dose response assay to identify non-selective compounds using the VP16 reporter assay.; format: functional
[2] = biological target: SWI/SNF-related matrix-associated actin-dependent regulator of chromatin subfamily A member 2 (Homo sapiens, UniProt P51531); experiment: Luminescence-based cell-based high throughput dose response assay to identify activators of the function of SWI/SNF related, matrix associated, actin dependent regulator of chromatin, subfamily a, member 2 (SMARCA2, BRM).; format: functional
Chain of SWI/SNF-related matrix-associated actin-dependent regulator of chromatin subfamily A member 2 (P51531 whole entry, the tested form may be a part): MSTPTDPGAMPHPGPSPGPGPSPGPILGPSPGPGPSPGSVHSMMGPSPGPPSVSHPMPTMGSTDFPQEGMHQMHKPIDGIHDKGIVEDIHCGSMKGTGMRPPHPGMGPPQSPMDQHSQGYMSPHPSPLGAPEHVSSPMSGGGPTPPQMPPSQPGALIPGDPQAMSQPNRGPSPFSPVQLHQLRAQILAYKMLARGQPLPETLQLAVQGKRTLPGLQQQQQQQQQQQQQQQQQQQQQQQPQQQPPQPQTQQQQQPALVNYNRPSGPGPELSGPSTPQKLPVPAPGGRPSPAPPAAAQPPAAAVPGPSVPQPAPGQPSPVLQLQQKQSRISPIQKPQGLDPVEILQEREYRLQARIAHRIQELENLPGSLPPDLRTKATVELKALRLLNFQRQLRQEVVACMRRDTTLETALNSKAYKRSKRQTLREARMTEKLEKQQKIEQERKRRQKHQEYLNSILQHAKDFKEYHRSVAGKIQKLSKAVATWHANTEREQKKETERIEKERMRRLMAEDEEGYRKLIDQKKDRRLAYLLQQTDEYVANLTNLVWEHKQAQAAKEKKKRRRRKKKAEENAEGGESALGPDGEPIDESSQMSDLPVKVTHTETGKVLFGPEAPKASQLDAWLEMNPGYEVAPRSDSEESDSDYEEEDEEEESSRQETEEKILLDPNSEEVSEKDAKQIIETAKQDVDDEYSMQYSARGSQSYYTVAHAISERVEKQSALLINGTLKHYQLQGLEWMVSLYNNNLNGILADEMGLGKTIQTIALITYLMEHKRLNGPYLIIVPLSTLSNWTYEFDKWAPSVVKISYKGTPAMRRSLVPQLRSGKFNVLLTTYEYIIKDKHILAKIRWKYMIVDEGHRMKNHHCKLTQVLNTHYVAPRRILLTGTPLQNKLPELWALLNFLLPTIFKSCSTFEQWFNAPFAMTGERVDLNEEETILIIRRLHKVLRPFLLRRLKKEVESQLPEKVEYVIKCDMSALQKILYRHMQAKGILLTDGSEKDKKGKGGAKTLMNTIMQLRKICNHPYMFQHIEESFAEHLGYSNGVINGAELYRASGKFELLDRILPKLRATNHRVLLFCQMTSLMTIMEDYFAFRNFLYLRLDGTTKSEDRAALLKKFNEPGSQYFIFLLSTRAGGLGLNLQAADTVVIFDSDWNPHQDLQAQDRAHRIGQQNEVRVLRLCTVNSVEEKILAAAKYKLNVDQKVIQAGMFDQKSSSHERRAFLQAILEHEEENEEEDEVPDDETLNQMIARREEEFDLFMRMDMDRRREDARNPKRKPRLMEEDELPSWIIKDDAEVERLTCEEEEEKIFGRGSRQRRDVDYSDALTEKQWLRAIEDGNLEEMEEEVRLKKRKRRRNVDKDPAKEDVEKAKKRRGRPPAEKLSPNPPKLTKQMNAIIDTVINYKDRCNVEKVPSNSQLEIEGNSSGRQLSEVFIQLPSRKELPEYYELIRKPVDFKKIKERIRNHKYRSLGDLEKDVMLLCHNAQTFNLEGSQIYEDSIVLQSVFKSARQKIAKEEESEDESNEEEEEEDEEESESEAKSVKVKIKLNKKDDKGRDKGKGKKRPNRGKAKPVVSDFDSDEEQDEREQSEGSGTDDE

[3] = inhibitors of clade B AD8 Env fusion, dose response, cell-based, cherry-pick (AID 652062); format: functional;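 also: luciferase signal from cell-cell fusion driven by HIV-1 clade B AD8 Env; potency is for inhibitors of fusion seen as a drop in luminescence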
[4] = CEM21 lymphoblast cell cytotoxicity, dose response, cytotoxicity control for viral fusion inhibitor project, CellTiter-Glo luminescence, cherry-picked (AID 652042); format: functional, cell-based;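 also: potency for signal decrease meaning cytotoxicity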
[5] = test system: INS1; experiment: beta cell apoptosis inhibitors, cytokine rescue, dose response, luminescence, retest (AID 449756); format: functional, cell-based; conditions: Rattus norvegicus;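 also: cell death triggered by IL-1 beta plus TNF-alpha plus IFN-gamma mixture; protective hits raise ATP signal compared with cytokine alone wells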
[6] = ZM109 Env clade C HIV-1 fusion inhibitors, dose response, HeLa effector, CEM target cells, luciferase, cherry-pick (AID 652058); format: functional, cell-based
[7] = off-target signal loss in HeLa-CEM21 co-culture – HeLa F-luc CTL cells, cherry-picked, counter-screen for HIV-1 Env fusion inhibitor project, dose response (AID 652040); format: functional, cell-based;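 also: potency for signal decrease marking cytotoxic or nonspecific inhibition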
[8] = inhibitors of HIV Env-driven cell fusion, dose response, cherry-pick (AID 652057); format: functional, cell-based
[9] = biological target: Mu-type opioid receptor (Homo sapiens, UniProt P35372); format: functional, cell-based;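 also: U2OS cells with beta-arrestin recruitment to OPRM1 by beta-gal complementation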
Chain of Mu-type opioid receptor (P35372 whole entry): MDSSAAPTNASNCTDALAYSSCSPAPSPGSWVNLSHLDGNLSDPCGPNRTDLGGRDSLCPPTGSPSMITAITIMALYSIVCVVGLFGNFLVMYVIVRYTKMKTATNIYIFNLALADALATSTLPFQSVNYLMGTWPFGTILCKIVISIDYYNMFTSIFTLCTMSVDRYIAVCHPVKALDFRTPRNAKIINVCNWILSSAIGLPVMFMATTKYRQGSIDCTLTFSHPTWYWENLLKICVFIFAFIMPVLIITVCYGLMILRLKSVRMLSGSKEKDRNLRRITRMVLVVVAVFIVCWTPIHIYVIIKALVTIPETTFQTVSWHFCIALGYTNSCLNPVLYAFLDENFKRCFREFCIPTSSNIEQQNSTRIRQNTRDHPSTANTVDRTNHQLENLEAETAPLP

[10] = biological target: Eukaryotic translation initiation factor 4E (Mus musculus, UniProt P63073); experiment: eIF4E–eIF4G protein interaction inhibitors, dose response, biochemical, TR-FRET (AID 855); format: functional;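 also: potency for disrupting eIF4E binding to eIF4GI seen as loss of FRET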
Chain of Eukaryotic translation initiation factor 4E (P63073 whole entry): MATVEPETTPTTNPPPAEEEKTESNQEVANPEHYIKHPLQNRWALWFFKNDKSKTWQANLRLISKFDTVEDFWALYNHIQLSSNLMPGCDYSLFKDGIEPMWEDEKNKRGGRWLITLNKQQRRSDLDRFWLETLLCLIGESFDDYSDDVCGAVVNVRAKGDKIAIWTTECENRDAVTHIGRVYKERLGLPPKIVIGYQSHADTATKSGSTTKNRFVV

[11] = biological target: Genome polyprotein (dengue virus type 2, UniProt P29990); experiment: Dengue-2 NS5 methyltransferase inhibitors, primary screen, biochemical, confirmation dose response (AID 588689); format: functional
[12] = biological target: Induced myeloid leukemia cell differentiation protein Mcl-1 (Homo sapiens, UniProt Q07820); format: functional
Chain of Induced myeloid leukemia cell differentiation protein Mcl-1 (Q07820 whole entry): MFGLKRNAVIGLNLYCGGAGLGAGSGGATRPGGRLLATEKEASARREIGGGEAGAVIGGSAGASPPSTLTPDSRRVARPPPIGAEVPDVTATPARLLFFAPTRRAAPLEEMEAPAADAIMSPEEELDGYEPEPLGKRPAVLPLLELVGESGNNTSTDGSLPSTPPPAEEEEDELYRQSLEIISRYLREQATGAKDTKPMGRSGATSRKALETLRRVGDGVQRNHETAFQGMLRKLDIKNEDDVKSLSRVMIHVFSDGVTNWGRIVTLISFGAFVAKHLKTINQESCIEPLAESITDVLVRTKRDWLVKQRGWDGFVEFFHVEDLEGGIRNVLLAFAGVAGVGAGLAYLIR

[13] = biological target: 5-hydroxytryptamine receptor 2A (Mus musculus, UniProt P35363); format: functional, cell-based;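 also: CHO-K1 cells with tagged receptor and beta-arrestin; agonist potency measured as compound-induced activation of the receptor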
[14] = biological target: T1, Mannose-6-phosphate isomerase (Homo sapiens, UniProt P34949); experiment: human PMI inhibitors, high substrate, primary screen, biochemical, fluorescence intensity, high mannose 6-phosphate (AID 1220)
T1 sequence (P34949 whole entry): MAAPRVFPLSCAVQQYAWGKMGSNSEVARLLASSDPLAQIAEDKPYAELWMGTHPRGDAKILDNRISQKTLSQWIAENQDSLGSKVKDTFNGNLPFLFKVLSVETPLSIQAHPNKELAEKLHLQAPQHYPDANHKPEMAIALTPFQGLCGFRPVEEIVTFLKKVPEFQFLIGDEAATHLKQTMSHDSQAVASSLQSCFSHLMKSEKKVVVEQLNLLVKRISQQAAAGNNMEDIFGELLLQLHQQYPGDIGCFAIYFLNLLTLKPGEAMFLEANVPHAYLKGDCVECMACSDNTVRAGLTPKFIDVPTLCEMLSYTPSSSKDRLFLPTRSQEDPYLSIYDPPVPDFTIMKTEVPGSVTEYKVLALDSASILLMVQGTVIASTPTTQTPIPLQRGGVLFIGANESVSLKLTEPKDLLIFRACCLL

[15] = test system: Vero; experiment: Vero cell cytotoxicity, cytotoxicity control for flavivirus capping enzyme inhibitors (AID 588742); format: functional; conditions: Chlorocebus sabaeus
[16] = biological target: T2, Histone-lysine N-methyltransferase NSD2 (Homo sapiens, UniProt O96028); format: biochemical
T2 sequence (O96028 whole entry): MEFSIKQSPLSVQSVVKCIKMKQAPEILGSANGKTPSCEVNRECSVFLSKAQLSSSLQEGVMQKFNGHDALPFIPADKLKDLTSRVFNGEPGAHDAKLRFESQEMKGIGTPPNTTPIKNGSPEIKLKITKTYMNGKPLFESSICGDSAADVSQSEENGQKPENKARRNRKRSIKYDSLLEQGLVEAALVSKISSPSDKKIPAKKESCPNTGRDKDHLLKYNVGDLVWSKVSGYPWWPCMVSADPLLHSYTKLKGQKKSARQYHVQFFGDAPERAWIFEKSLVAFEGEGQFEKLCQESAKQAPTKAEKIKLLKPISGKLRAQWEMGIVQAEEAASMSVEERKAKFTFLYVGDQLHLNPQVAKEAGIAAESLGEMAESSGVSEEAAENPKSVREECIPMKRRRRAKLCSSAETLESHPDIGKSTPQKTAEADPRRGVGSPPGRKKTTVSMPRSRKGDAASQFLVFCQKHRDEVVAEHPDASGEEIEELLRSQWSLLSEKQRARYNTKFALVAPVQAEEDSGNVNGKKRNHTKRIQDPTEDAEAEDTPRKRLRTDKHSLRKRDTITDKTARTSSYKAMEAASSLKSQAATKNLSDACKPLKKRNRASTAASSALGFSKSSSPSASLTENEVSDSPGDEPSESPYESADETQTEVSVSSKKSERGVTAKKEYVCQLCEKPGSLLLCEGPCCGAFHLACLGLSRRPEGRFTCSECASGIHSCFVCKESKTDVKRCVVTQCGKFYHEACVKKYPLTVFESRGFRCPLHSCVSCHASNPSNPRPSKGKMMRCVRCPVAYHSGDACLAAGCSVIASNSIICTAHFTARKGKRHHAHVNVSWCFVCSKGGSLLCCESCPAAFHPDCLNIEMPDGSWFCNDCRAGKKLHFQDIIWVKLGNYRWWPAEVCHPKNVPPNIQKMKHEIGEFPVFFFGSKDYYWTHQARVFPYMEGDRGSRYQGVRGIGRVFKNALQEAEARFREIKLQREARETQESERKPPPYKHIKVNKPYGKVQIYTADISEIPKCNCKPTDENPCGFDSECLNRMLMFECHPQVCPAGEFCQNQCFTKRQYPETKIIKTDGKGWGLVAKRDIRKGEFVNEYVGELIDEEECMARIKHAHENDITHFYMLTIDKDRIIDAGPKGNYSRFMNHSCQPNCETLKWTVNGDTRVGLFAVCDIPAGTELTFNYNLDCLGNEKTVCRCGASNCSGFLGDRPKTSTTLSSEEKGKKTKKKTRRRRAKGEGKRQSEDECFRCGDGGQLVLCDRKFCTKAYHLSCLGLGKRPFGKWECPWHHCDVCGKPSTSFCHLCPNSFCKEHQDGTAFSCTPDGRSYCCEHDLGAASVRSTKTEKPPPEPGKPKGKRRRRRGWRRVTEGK

[17] = T. cruzi growth inhibition in host cells, dose response, cell-based, plate reader, dry powder, set 2 (AID 652275); format: functional
[18] = HEK293T cytotoxicity, dose response, cytotoxicity control for miR-122 modulator project, cell-based, inhibitor set, cherry-pick, set 2 (AID 720697); format: functional
[19] = biological target: Albumin (Bos taurus, UniProt P02769); experiment: Counterscreen for inhibitors of T-cell receptor (TCR)-CD3 interaction: Fluorescence-based biochemical high throughput dose response assay to identify inhibitors of T-cell receptor (TCR)-CD3 interaction using a TAMRA-labeled BSA probe.; format: functional
[20] = biological target: T3, Fatty acid synthase (Homo sapiens, UniProt P49327); experiment: FAS thioesterase domain inhibitors, dose response, biochemical, kinetic fluorescence intensity (AID 624326); format: functional;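 also: rate of fluorescence rise from hydrolysis of a fluorogenic O-methyl fluorescein ester substrate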
T3 sequence (P49327 whole entry, the tested form may be a part): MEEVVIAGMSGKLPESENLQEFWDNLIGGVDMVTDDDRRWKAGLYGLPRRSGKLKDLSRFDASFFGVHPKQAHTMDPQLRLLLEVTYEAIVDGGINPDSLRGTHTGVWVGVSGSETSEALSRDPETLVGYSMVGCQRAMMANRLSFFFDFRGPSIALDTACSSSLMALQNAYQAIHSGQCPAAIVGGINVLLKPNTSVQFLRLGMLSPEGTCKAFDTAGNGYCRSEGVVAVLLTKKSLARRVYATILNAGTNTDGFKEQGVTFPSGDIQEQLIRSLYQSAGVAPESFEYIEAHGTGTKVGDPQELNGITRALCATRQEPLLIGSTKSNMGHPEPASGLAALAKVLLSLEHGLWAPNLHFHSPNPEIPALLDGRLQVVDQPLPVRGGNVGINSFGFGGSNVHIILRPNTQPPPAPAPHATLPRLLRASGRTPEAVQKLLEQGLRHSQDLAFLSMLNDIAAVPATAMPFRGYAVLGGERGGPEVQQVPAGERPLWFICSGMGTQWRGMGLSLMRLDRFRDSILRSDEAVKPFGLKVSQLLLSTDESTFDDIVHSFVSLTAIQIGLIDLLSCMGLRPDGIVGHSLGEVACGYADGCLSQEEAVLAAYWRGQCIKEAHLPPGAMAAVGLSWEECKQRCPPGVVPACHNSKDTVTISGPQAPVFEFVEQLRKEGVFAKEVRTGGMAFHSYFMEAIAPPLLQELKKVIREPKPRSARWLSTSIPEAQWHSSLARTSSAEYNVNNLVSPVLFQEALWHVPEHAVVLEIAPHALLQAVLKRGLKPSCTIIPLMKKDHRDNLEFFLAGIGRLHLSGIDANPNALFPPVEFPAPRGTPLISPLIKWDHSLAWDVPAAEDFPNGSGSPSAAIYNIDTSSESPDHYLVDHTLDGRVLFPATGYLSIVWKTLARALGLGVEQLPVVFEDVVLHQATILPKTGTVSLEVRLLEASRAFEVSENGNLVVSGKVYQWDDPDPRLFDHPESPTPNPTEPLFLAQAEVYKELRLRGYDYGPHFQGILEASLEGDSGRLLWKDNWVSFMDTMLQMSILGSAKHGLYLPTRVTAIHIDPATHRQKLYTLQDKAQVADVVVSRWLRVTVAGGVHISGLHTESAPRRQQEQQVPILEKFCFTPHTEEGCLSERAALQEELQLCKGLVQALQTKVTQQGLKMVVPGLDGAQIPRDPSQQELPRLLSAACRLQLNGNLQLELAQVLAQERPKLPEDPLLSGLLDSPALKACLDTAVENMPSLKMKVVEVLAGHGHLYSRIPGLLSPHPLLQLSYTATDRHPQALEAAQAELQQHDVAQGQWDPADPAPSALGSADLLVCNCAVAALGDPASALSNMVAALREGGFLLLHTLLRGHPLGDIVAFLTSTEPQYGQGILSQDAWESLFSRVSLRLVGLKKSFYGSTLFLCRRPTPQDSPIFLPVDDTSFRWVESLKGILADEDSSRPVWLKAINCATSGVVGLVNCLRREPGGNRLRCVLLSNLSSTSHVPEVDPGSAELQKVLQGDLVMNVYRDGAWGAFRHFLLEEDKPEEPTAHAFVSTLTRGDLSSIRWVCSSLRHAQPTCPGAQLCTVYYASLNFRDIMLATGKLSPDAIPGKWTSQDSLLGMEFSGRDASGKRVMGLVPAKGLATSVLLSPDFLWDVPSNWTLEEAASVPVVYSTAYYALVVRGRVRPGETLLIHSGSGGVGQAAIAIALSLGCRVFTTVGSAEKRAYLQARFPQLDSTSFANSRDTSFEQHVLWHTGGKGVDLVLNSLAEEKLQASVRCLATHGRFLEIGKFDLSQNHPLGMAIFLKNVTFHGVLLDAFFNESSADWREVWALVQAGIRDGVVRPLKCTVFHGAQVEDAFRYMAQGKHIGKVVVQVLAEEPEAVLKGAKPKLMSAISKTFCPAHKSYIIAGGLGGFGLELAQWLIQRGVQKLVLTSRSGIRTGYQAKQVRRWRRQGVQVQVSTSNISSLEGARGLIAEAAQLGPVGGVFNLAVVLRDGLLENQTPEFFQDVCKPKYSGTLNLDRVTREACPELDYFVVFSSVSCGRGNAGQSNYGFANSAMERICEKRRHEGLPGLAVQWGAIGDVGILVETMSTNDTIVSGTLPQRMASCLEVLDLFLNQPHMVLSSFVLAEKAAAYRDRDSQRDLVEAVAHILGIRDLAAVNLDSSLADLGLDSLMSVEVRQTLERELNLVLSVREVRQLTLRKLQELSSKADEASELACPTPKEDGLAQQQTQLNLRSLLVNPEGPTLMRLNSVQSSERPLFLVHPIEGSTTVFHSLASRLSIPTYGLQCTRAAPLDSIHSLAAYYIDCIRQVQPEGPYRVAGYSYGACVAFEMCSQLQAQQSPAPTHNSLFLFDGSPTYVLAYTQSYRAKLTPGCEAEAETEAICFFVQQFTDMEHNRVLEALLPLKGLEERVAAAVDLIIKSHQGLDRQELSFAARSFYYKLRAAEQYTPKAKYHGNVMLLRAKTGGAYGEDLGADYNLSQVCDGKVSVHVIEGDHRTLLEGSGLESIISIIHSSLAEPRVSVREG

[21] = biological target: T3, Fatty acid synthase; experiment: FAS thioesterase domain inhibitors, dose response, biochemical, endpoint fluorescence intensity, uHTS hits (AID 624327); format: functional;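 also: fluorescence from hydrolysis of an O-methyl fluorescein acyl ester substrate by the enzyme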
[22] = test system: Vero; experiment: cells; format: functional; conditions: Chlorocebus sabaeus

## O=C(/C=C/c1ccc(-c2ccccc2)o1)c1ccccc1
[1]
  EC50: > 91.2 µM (inactive)
[2]
  EC50: > 91.2 µM (inactive)

## S=C(NCCCN1CCOCC1)N1CCN(c2nc(-c3ccc(Cl)cc3)cs2)CC1
[3]
  AC50: 7.13 µM (active)
[4]
  AC50: 19.9 µM (active)
[5]
  AC50: 11.2 µM (active)
[6]
  AC50: 888 nM (active)
[7]
  AC50: 25.9 µM (active)
[8]
  AC50: 31 µM (active)

## COCC/N=c1\scc(-c2ccco2)n1/N=C/c1ccc(O)c(O)c1O
[9]
  EC50: 92.5 µM (inactive)
[10]
  IC50: 36 µM (inactive)
[11]
  IC50: > 100 µM (active)
[12]
  IC50: 1.6 µM (active)
[13]
  EC50: 11.6 µM (inactive)
[14]
  IC50: 32 µM (active)
[15]
  CC50: 38.6 µM (active)
[16]
  AC50: 1.16 µM (active)

## C[C@H]1CN([C@@H](C)CO)C(=O)c2cccc(NC(=O)c3ccncc3)c2O[C@@H]1CN(C)Cc1ccccc1C(F)(F)F
[17]
  AC50: 34.2 nM (active)

## C[C@@H]1CN([C@@H](C)CO)S(=O)(=O)c2ccc(/C=C/c3ccccc3)cc2O[C@@H]1CN(C)C(=O)NC1CCCCC1
[18]
  AC50: 533 nM (active)

## O=C(N/N=C/c1cc([N+](=O)[O-])cc([N+](=O)[O-])c1O)/C(=C\c1cccs1)NC(=O)c1ccccc1
[19]
  IC50: > 94.1 µM (inactive)
[20]
  IC50: 4.89 µM (active)
[21]
  IC50: 6.3 µM (active)

## O=C(/C=C/c1ccc(O)cc1)c1ccc(O)cc1O [ISOLIQUIRITIGENIN]
[1]
  EC50: > 91.1 µM (inactive)
[2]
  EC50: > 91.1 µM (inactive)
[22]
  CC50: > 25 µM (active)
